Reference: patent publication US20230295234A1, “ANTIMICROBIAL PEPTIDOMIMETICS” (SPEXIS AG, priority 2020, published 2023)
Peptide text beside a SMILES is read from it.

Assays:
[1] = test system: Escherichia coli ATCC 25922; conditions: ATCC 25922
Method in brief: (§1)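 First, bacterial colonies are suspended in saline and adjusted to 0.5 McFarland. Next, the suspension is diluted into cation-adjusted Mueller-Hinton II broth (approx. 5×10^5 CFU/mL). Finally, it is added to two-fold serially diluted peptide, with polysorbate 80 at 0.002% final.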

[2] = test system: Escherichia coli MCR-1 Af 45; conditions: MCR-1 Af 45
Method in brief: as §1

[3] = test system: Klebsiella pneumoniae SSI3010; conditions: SSI3010
Method in brief: as §1

[4] = test system: human red blood cells (hRBC); assay: Hemolysis of human red blood cells; type: cell-based; conditions: red cells of human, 1 h
Method in brief: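 Percent hemolysis is OD540 of peptide-treated supernatant relative to water-lysed cells. Each peptide was tested at 200 μg/mL against 20% (v/v) washed human erythrocytes. Incubation was 1 h at 37 °C, 300 rpm.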

| Compound | Escherichia coli ATCC 25922 MIC [1] [µg/mL] | Escherichia coli MCR-1 Af 45 MIC [2] [µg/mL] | Klebsiella pneumoniae SSI3010 MIC [3] [µg/mL] | Hemolysis at 0.2 g/L [4] [%] |
| --- | --- | --- | --- | --- |
| CCCC[C@H](NC(=O)[C@H](CCCNC(=N)N)NC(=O)[C@H](CCN)NC(=O)[C@@H]1CSSC[C@H](NC(=O)[C@H](Cc2ccc(O)cc2)NC(=O)[C@H](Cc2c[nH]cn2)NC(=O)[C@@H](NC(=O)[C@@H]2CCCN2C(=O)[C@@H](NC(=O)[C@@H](CCCCN)NC(=O)[C@H](CCCCN)NC(=O)[C@@H](N)CCCCN)C(C)C)[C@@H](C)CC)C(=O)N[C@@H](CC(N)=O)C(=O)N[C@@H](CCCNC(=N)N)C(=O)N[C@@H](CCCNC(=N)N)C(=O)N[C@@H]([C@@H](C)O)C(=O)N[C@H](CCN)C(=O)N[C@@H](CCCCN)C(=O)N1)C(=O)O [Example 77] (HELM PEPTIDE1{K.K.[dK].V.P.I.H.Y.C.N.R.R.T.[NCC[C@@H](N[*:1])C(=O)[*:2]].K.C.[Dab].R.[Nle]}$PEPTIDE1,PEPTIDE1,9:R3-16:R3$$$V2.0) | 0.125 | 0.0625 | 0.25 | 0 |
| CC[C@H](C)[C@H](NC(=O)[C@@H](NC(=O)[C@@H]1CCCN1C(=O)[C@@H](NC(=O)[C@@H]1CCCN1C(=O)[C@H](CCCCN)NC(=O)[C@@H](N)CCCCN)C(C)C)[C@@H](C)CC)C(=O)N[C@@H](Cc1ccc(O)cc1)C(=O)N[C@H]1CSSC[C@@H](C(=O)N[C@@H](CCN)C(=O)N[C@@H](CCCNC(=N)N)C(=O)N[C@@H](CC2CC2)C(=O)O)NC(=O)[C@H](CCCCN)NC(=O)[C@@H](CCN)NC(=O)[C@H]([C@@H](C)O)NC(=O)[C@H](CCN)NC(=O)[C@H](CCCNC(=N)N)NC(=O)[C@H](CC(N)=O)NC1=O [Example 79] (HELM PEPTIDE1{K.K.P.V.P.I.I.Y.C.N.R.[Dab].T.[NCC[C@@H](N[*:1])C(=O)[*:2]].K.C.[Dab].R.[O=C(O)[C@H](CC1CC1)N[*:1]]}$PEPTIDE1,PEPTIDE1,9:R3-16:R3$$$V2.0) | 0.0625 | ≤0.03125 | 0.125 | 0 |
| CC[C@H](C)[C@H](NC(=O)[C@@H](NC(=O)[C@@H]1CCCN1C(=O)[C@@H](NC(=O)[C@@H]1CCCN1C(=O)[C@H](CCCCN)NC(=O)[C@@H](N)CCCCN)C(C)C)[C@@H](C)CC)C(=O)N[C@@H](Cc1ccc(O)cc1)C(=O)N[C@H]1CSSC[C@@H](C(=O)N[C@@H](CCN)C(=O)N[C@@H](CCCNC(=N)N)C(=O)N[C@@H](CC2CCOCC2)C(=O)O)NC(=O)[C@H](CCCCN)NC(=O)[C@@H](CCN)NC(=O)[C@H]([C@@H](C)O)NC(=O)[C@H](CCN)NC(=O)[C@H](CCCNC(=N)N)NC(=O)[C@H](CC(N)=O)NC1=O [Example 80] (HELM PEPTIDE1{K.K.P.V.P.I.I.Y.C.N.R.[Dab].T.[NCC[C@@H](N[*:1])C(=O)[*:2]].K.C.[Dab].R.[O=C(O)[C@H](CC1CCOCC1)N[*:1]]}$PEPTIDE1,PEPTIDE1,9:R3-16:R3$$$V2.0) | 0.0625 | 0.0625 | 0.125 | 0 |
| CC[C@H](C)[C@H](NC(=O)[C@@H](NC(=O)[C@@H]1CCCN1C(=O)[C@@H](NC(=O)[C@@H]1CCCN1C(=O)[C@H](CCCCN)NC(=O)[C@@H](N)CCCCN)C(C)C)[C@@H](C)CC)C(=O)N[C@@H](Cc1ccc(O)cc1)C(=O)N[C@H]1CSSC[C@@H](C(=O)N[C@@H](CCN)C(=O)N[C@@H](CCCNC(=N)N)C(=O)N[C@H](C(=O)O)C2CC2)NC(=O)[C@H](CCCCN)NC(=O)[C@@H](CCN)NC(=O)[C@H]([C@@H](C)O)NC(=O)[C@H](CCN)NC(=O)[C@H](CCCNC(=N)N)NC(=O)[C@H](CC(N)=O)NC1=O [Example 81] (HELM PEPTIDE1{K.K.P.V.P.I.I.Y.C.N.R.[Dab].T.[NCC[C@@H](N[*:1])C(=O)[*:2]].K.C.[Dab].R.[O=C(O)[C@@H](N[*:1])C1CC1]}$PEPTIDE1,PEPTIDE1,9:R3-16:R3$$$V2.0) | ≤0.03125 | ≤0.03125 | 0.125 | 0 |
| CCC(CC)[C@H](NC(=O)[C@H](CCCNC(=N)N)NC(=O)[C@H](CCN)NC(=O)[C@@H]1CSSC[C@H](NC(=O)[C@H](Cc2ccc(O)cc2)NC(=O)[C@@H](NC(=O)[C@@H](NC(=O)[C@@H]2CCCN2C(=O)[C@@H](NC(=O)[C@@H]2CCCN2C(=O)[C@H](CCCCN)NC(=O)[C@@H](N)CCCCN)C(C)C)[C@@H](C)CC)[C@@H](C)CC)C(=O)N[C@@H](CC(N)=O)C(=O)N[C@@H](CCCNC(=N)N)C(=O)N[C@@H](CCN)C(=O)N[C@@H]([C@@H](C)O)C(=O)N[C@H](CCN)C(=O)N[C@@H](CCCCN)C(=O)N1)C(=O)O [Example 82] (HELM PEPTIDE1{K.K.P.V.P.I.I.Y.C.N.R.[Dab].T.[NCC[C@@H](N[*:1])C(=O)[*:2]].K.C.[Dab].R.[CCC(CC)[C@H](N[*:1])C(=O)O]}$PEPTIDE1,PEPTIDE1,9:R3-16:R3$$$V2.0) | 0.0625 | 0.0625 | 0.125 | 0 |
| CC[C@H](C)[C@H](NC(=O)[C@@H](NC(=O)[C@@H]1CCCN1C(=O)[C@@H](NC(=O)[C@@H]1CCCN1C(=O)[C@H](CCCCN)NC(=O)[C@@H](N)CCCCN)C(C)C)[C@@H](C)CC)C(=O)N[C@@H](Cc1ccc(O)cc1)C(=O)N[C@H]1CSSC[C@@H](C(=O)N[C@@H](CCN)C(=O)N[C@@H](CCCNC(=N)N)C(=O)N[C@@H](CC(C)(C)C)C(=O)O)NC(=O)[C@H](CCCCN)NC(=O)[C@@H](CCN)NC(=O)[C@H]([C@@H](C)O)NC(=O)[C@H](CCN)NC(=O)[C@H](CCCNC(=N)N)NC(=O)[C@H](CC(N)=O)NC1=O [Example 83] (HELM PEPTIDE1{K.K.P.V.P.I.I.Y.C.N.R.[Dab].T.[NCC[C@@H](N[*:1])C(=O)[*:2]].K.C.[Dab].R.[CC(C)(C)C[C@H](N[*:1])C(=O)O]}$PEPTIDE1,PEPTIDE1,9:R3-16:R3$$$V2.0) | 0.0625 | 0.0625 | 0.25 | 0 |
| CC[C@H](C)[C@H](NC(=O)[C@@H](NC(=O)[C@@H]1CCCN1C(=O)[C@@H](NC(=O)[C@@H]1CCCN1C(=O)[C@H](CCCCN)NC(=O)[C@@H](N)CCCCN)C(C)C)[C@@H](C)CC)C(=O)N[C@@H](Cc1ccc(O)cc1)C(=O)N[C@H]1CSSC[C@@H](C(=O)N[C@@H](CCN)C(=O)N[C@@H](CCCNC(=N)N)C(=O)N[C@H](C(=O)O)C(C)(C)C)NC(=O)[C@H](CCCCN)NC(=O)[C@@H](CCN)NC(=O)[C@H]([C@@H](C)O)NC(=O)[C@H](CCN)NC(=O)[C@H](CCCNC(=N)N)NC(=O)[C@H](CC(N)=O)NC1=O [Example 84] (HELM PEPTIDE1{K.K.P.V.P.I.I.Y.C.N.R.[Dab].T.[NCC[C@@H](N[*:1])C(=O)[*:2]].K.C.[Dab].R.[CC(C)(C)[C@H](N[*:1])C(=O)O]}$PEPTIDE1,PEPTIDE1,9:R3-16:R3$$$V2.0) | 0.0625 | 0.0625 | 0.125 | 0 |
| CC[C@H](C)[C@H](NC(=O)[C@@H](NC(=O)[C@@H]1CCCN1C(=O)[C@@H](NC(=O)CCNC(=O)[C@H](CCCNC(=N)N)NC(=O)[C@@H](N)CCCCN)C(C)C)[C@@H](C)CC)C(=O)N[C@@H](Cc1ccc(O)cc1)C(=O)N[C@@H]1C(=O)N[C@@H](CC(N)=O)C(=O)N[C@@H](CCCNC(=N)N)C(=O)N[C@@H](CCN)C(=O)N[C@@H]([C@@H](C)O)C(=O)N[C@H](CCN)C(=O)N[C@@H](CCCCN)C(=O)N[C@H](C(=O)N[C@@H](CCN)C(=O)N[C@@H](CCCNC(=N)N)C(=O)N[C@@H](Cc2ccc(O)cc2)C(=O)O)CSSC1(C)C [Example 85, Lys-Arg-betaGly-Val-Pro-Ile-Ile-Tyr-Pen-Asn-Arg-Dab-Thr-^DDab-Lys-Cys-Dab-Arg-Tyr] (HELM PEPTIDE1{K.R.[bAla].V.P.I.I.Y.[Pen].N.R.[Dab].T.[NCC[C@@H](N[*:1])C(=O)[*:2]].K.C.[Dab].R.Y}$PEPTIDE1,PEPTIDE1,9:R3-16:R3$$$V2.0) | 0.0625 | 0.0625 | 0.125 | 0 |
| CC[C@H](C)[C@H](NC(=O)[C@@H]1CCCN1C(=O)[C@@H](NC(=O)[C@@H]1CCCN1C(=O)[C@H](CCCNC(=N)N)NC(=O)[C@@H](N)CCCCN)C(C)C)C(=O)N[C@@H](CCCNC(=N)N)C(=O)N[C@@H](Cc1ccc(O)cc1)C(=O)N[C@@H]1C(=O)N[C@@H](CC(N)=O)C(=O)N[C@@H](CCCNC(=N)N)C(=O)N[C@@H](CCN)C(=O)N[C@@H]([C@@H](C)O)C(=O)N[C@H](CCN)C(=O)N[C@@H](CCCCN)C(=O)N[C@H](C(=O)N[C@@H](CCN)C(=O)N[C@@H](CCCNC(=N)N)C(=O)N[C@@H](Cc2ccc(O)cc2)C(=O)O)CSSC1(C)C [Example 86] (HELM PEPTIDE1{K.R.P.V.P.I.R.Y.[Pen].N.R.[Dab].T.[NCC[C@@H](N[*:1])C(=O)[*:2]].K.C.[Dab].R.Y}$PEPTIDE1,PEPTIDE1,9:R3-16:R3$$$V2.0) | 0.125 | ≤0.03125 | 0.125 | 0 |
